Experimental findings from patent US8299068B2, “Therapeutically active cyclopentanes” (Allergan, Inc., priority 2010, dated 2012) are described below.

Experiment [1] addresses T1, EP2 (Homo sapiens, UniProt P43116). Briefly: EP2 cAMP functional assay. The experiment is classed as cell-based. The text has this: (§1) U.S. Pat. No. 7,427,685 incorporated by reference herein, describes the methods used to obtain the in vitro data in Table 2 below.
For experiment [2], the target named is T1, EP2. Briefly: EP2 binding (Ki).
Description: as §1

Experiment [3] deals with T1, EP2. The experiment is described as follows: EP2 Ca2+ signal functional assay. The experiment is classed as cell-based.
Description: as §1

Experiment [4] has as its target T2, EP4 (Homo sapiens, UniProt P35408). The experiment is described as follows: EP4 Ca2+ signal functional assay. The experiment is classed as cell-based.
Description: as §1

The target of experiment [5] is T2, EP4. The experiment is described as follows: EP4 binding (Ki).
Description: as §1

A further experiment has as its target T3, DP (Homo sapiens, UniProt Q13258).
T3 sequence (Q13258 1-359): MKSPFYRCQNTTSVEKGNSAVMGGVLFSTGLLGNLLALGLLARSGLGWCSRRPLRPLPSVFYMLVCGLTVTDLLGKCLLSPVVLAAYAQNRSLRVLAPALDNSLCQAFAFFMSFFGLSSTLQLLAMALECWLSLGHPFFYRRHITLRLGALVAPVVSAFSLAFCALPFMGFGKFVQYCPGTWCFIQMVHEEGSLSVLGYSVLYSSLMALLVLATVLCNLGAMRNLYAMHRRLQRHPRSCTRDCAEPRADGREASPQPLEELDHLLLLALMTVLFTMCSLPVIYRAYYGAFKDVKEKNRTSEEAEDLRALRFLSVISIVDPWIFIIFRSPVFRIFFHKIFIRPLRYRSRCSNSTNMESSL
The experiment is described as follows: Other receptors Ca2+ functional assay, DP. The experiment is classed as cell-based.
Description: as §1

The target of a further experiment is T4, EP3 (Homo sapiens, UniProt P43115).
T4 sequence (P43115 1-390): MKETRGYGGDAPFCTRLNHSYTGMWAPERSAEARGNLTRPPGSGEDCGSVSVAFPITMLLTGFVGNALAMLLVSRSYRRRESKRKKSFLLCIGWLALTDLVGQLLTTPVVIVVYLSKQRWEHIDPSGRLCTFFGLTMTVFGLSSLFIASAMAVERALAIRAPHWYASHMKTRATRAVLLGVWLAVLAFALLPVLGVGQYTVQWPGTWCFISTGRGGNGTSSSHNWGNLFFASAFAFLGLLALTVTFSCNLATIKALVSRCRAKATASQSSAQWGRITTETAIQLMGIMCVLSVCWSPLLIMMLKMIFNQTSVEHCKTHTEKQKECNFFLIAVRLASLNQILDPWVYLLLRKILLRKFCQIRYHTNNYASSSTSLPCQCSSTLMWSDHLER
Briefly: Other receptors Ca2+ functional assay, EP3. Type of experiment: cell-based.
Description: as §1

T1 sequence (P43116 whole entry): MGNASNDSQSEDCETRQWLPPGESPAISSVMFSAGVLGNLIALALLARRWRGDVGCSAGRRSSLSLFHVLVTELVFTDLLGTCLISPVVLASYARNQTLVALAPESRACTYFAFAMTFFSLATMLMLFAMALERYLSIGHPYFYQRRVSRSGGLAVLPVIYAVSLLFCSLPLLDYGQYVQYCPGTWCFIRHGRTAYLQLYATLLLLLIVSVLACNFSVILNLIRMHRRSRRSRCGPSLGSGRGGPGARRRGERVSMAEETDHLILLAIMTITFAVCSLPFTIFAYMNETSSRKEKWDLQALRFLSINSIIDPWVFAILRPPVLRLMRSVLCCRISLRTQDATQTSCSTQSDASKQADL
T2 sequence (P35408 whole entry): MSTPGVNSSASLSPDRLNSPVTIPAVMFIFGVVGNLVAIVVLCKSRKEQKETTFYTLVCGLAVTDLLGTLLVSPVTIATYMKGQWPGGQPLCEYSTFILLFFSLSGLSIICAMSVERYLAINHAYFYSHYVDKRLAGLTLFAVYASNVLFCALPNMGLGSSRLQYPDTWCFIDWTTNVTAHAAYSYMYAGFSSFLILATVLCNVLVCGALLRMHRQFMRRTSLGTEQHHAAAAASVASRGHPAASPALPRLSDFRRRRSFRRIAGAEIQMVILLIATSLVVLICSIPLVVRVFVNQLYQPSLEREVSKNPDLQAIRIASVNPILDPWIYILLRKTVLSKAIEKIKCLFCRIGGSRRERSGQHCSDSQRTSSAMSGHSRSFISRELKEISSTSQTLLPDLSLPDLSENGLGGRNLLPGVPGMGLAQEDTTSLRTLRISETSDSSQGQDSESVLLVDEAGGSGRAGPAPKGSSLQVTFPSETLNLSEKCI

In general, EC50 refers to the midpoint of the concentration-response curve. Lower therefore signals greater potency. What is called Ki is the equilibrium dissociation constant of an inhibitor or competing ligand from its target. Low readings indicate higher affinity, high ones lower affinity. On to `O=C(O)c1ccc(CCC[C@@H]2[C@@H](CCC3CCCCC3)[C@H](O)C[C@H]2Cl)s1` [Entry 3], for which the EC50 at EP2 [1] came out at 0.2 nM; on EP2 [3], 12 nM; at EP4 [4], 6640 nM; on DP it was 548 nM; on EP3 it was 9050 nM. For the same molecule, the Ki on EP2 [2] is 0.8 nM; on EP4 [5], 2150 nM.

Take `CCCCCC1(CC[C@@H]2[C@@H](CCCc3ccc(C(=O)O)s3)[C@H](Cl)C[C@H]2O)CCCCC1` [Entry 5]: the EC50 on EP2 [1] worked out at 152 nM; at EP2 [3], 2410 nM; on EP4 [4], 9330 nM. Besides, the Ki on EP2 [2] stood at 1040 nM; on EP4 [5] it was 5060 nM.

Regarding `O=C(O)c1ccc(CCC[C@@H]2[C@@H](CCC3CCCC3)[C@H](O)C[C@H]2Cl)s1` [compound 1], the EC50 was found to be 0.6 nM on EP2 [1], 4 nM on EP2 [3], 3070 nM at EP4 [4] and 259 nM on DP. Besides, the Ki was found to be 9 nM at EP2 [2] and 2620 nM on EP4 [5].

For `O=C(O)c1ccc(CCC[C@@H]2[C@@H](/C=C/C3CCCC3)[C@H](O)C[C@H]2Cl)s1` [Entry 2], the EC50 amounted to 0.9 nM on EP2 [1], 3 nM at EP2 [3], 1350 nM on EP4 [4] and 191 nM at DP. Besides, the Ki on EP2 [2] came out at 10 nM; at EP4 [5], 2740 nM.

For `O=C(O)c1ccc(CCC[C@@H]2[C@@H](/C=C/C3CCCCC3)[C@H](O)C[C@H]2Cl)s1` [Entry 4], the EC50 turned out to be 0.5 nM at EP2 [1]; 7 nM on EP2 [3]; 3320 nM at EP4 [4]; 2160 nM at DP; 5220 nM on EP3. For the same molecule, the Ki came to 4 nM at EP2 [2] and 2710 nM at EP4 [5].
